Series [1] deals with carbon tetrachloride (CCl4)-induced liver diseases. Nature of the series: Pharmacological activity (1) on carbon tetrachloride (CCl4)-induced liver diseases. The format is in vivo, SD rats. The settings on record: i.p. 5 mg/kg rat twice, CCl4 1 ml/kg rat, 24 hours, average of five rats; for Total bilirubin in serum: CCl4 alone 1.2; for GPT in serum: CCl4 alone 818; for GOT in serum: CCl4 alone 3308. The protocol: Pharmacological activity (1) of PQQ triesters on carbon tetrachloride (CCl4)-induced liver diseases:
Twenty SD rats (male, 7 weeks old, body weight: about 220 g; supplied by Japan Charles River Co.) were divided to four groups (A-D) each consisting of five rats. All rats were fasted for 16 hours and 1.1 ml of a solution containing 1 mg/ml of PQQ trimethyl ester was intraperitoneally administered to the rats of group C and 1.1 ml of a solution containing 1 mg/ml of PQQ triallyl ester was intraperitoneally administered to the rats of group D and after lapse of 40 minutes, the same PQQ triesters in the same dose as above was intraperitoneally administered, respectively. For administration, the PQQ triesters were suspended in physiological saline containing 1 % Tween 80, 1.1 ml of physiological saline was intraperitoneally administered to the rats of group B in place of PQQ triesters. Furthermore, after 20 minutes, 2.2 ml of 10 vol% carbon tetrachloride (solution in olive oil) was administered to stomach of the rats of groups B-D. Neither PQQ triesters nor carbon tetrachloride were administered to the rats of group A.
(§1) After 24 hours from administration of carbon tetrachloride, blood was collected from abdominal main artery and serum was obtained by centrifugation therefrom.
GPT, GOT and amount of total bilirubin in the serum were measured by clinical examination reagent (trademark: FUJI DRYCHEMSLIDE manufactured by Fuji Photo Film Co., Ltd.). The results are shown in Table 5 by average value of five rats.

For series [2] the following is noted: bovine, not told, 960 min.
Another series has as its system male mice SPF-ICR. Nature of the series: Acute toxicity test. The conditions noted are these: mouse, in vivo. On the procedure:
To male mice SPF-ICR five weeks old (supplied by Japan Charles River Co.) were intraperitoneally administered PQQ.2Na, PQQ trimethyl ester and PQQ triallyl ester at dosages of 40, 80, 160 and 200 mg per kg of body weight of mouse, respectively and they were bred for 14 days at 25° C. One group consisted of 8 mice. For administration, PQQ.2Na was dissolved in physiological saline and PQQ trimethyl ester and PQQ triallyl ester were suspended in 1%Tween 80-containing physiological saline, respectively.

Series [3] concerns D-galactosamine-induced liver diseases. Nature of the series: Pharmacological effect (1) on D-galactosamine-induced liver diseases. The format is in vivo, SD rats. The settings on record: D-galactosamine 1 g/kg rat s.c., 23 hours, average of five rats; for Total bilirubin in serum: D-galactosamine alone 1.0; for GPT in serum: D-galactosamine alone 552; for GOT in serum: D-galactosamine alone 1067. On the procedure:
Pharmacological effect (1) of PQQ triesters on D-galactosamine-induced liver diseases;
Forty SD rats (male 7 weeks old, body weight: about 240 g; supplied by Japan Charles River Co.) were divided to eight groups (A-H) each consisting of five rats. All rats were fasted for 16 hours and 1.2 ml of a solution containing 0.4 mg/ml of PQQ trimethyl ester was intraperitoneally administered to the rats of group C, 1.2 ml of a solution containing 1.0 mg/ml of PQQ trimethyl ester was intraperitoneally administered to the rats of group D, 1.2 ml of a solution containing 2.0 mg/ml of PQQ trimethyl ester was intraperitoneally administered to the rats of group E, 1.2 ml of a solution containing 0.4 mg/ml of PQQ triallyl ester was intraperitoneally administered to the rats of group F, 1.2 ml of a solution containing 1.0 mg/ml of PQQ triallyl ester was intraperitoneally administered to the rats of group G, and 1.2 ml of a solution containing 2.0 mg/ml of PQQ triallyl ester was intraperitoneally administered to the rats of group H and furthermore, after 40 minutes, the same PQQ triesters in the same doses as above were intraperitoneally administered to respective rats. In these cases, the PQQ triesters were suspended in physiological saline containing 1% Tween 80 and administered to the rats. 1.2 ml of physiological saline was intraperitoneally administered to the rats of group B in place of PQQ triesters. Furthermore, after 20 minutes, 1.2 ml of a solution of 2 g of D-galactosamine in 10 ml of physiological saline was subcutaneously injected to the rats of groups B-H. Neither PQQ triesters nor D-galactosamine were administered to the rats of group A.
After 23 hours from administration of D-galactosamine, blood was collected from abdominal main artery and serum was obtained by centrifugation therefrom.
GPT, GOT and amount of total bilirubin in the serum were measured by clinical examination reagent (trademark: FUJI DRYCHEMSLIDE manufactured by Fuji Photo Film Co., Ltd.). The results are shown in Table 7 by average value of five rats.

The test system of series [4] is carbon tetrachloride (CCl4)-induced liver diseases. Nature of the series: Pharmacological activity (2) on carbon tetrachloride (CCl4)-induced liver diseases. The format is in vivo, SD rats. The settings on record: CCl4 1 ml/kg rat i.p., 24 hours, average of five rats; for Total bilirubin in serum: CCl4 alone 0.9; for GPT in serum: CCl4 alone 949; for GOT in serum: CCl4 alone 1970. On the procedure:
Pharmacological activity (2) of PQQ triesters on carbon tetrachloride (CCl4)-induced liver diseases:
Forty SD rats (male, 7 weeks old, body weight: about 260 g; supplied by Japan Charles River Co.) were divided to eight groups (A-H) each consisting of five rats. All rats were fasted for 18 hours and 1.3 ml of a solution containing 2 mg/ml of PQQ trimethyl ester was intraperitoneally administered to the rats of group C, 1.3 ml of a solution containing 10 mg/ml of PQQ trimethyl ester was intraperitoneally administered to the rats of group D, 1.3 ml of a solution containing 20 mg/ml of PQQ trimethyl ester was intraperitoneally administered to the rats of group E, 1.3 ml of a solution containing 2 mg/ml of PQQ triallyl ester was intraperitoneally administered to the rats of group F, 1.3 ml of a solution containing […] was intraperitoneally administered to the rats of group G, and 1.3 ml of a solution containing 20 mg/ml of PQQ triallyl ester was intraperitoneally administered to the rats of group H and furthermore, after lapse of 50 minutes, the same PQQ triesters in the same doses as above were intraperitoneally administered to respective rats. In these cases, the PQQ triesters were suspended in physiological saline containing 1% Tween 80 and administered to the rats. 1.3 ml of physiological saline was intraperitoneally administered to the rats of group B in place of PQQ triesters. […] Neither PQQ triesters nor carbon tetrachloride were administered to the rats of group A.
as §1
GPT, […] and amount of total bilirubin in the serum were measured by clinical examination reagent (trademark: FUJI DRYCHEMSLIDE manufactured by Fuji Photo Film Co., Ltd.). The results are shown in Table 6 by average value of five rats.

In the case of `C=CCOC(=O)c1cc(C(=O)OCC=C)c2c(n1)C(=O)C(=O)c1cc(C(=O)OCC=C)[nH]c1-2` [PQQ triallyl ester], the “Total bilirubin in serum” value in series [1] is 0.8 mg/dL; in series [3] (i.p. 2 mg/kg rat twice), 0.8 mg/dL; in series [3] (i.p. 5 mg/kg rat twice) it was 0.8 mg/dL; in series [3] (i.p. 10 mg/kg rat twice), 0.6 mg/dL; in series [4] (i.p. 10 mg/kg rat twice), 0.7 mg/dL; in series [4] (i.p. 50 mg/kg rat twice), 0.7 mg/dL. Also, the “Total bilirubin in serum” value in series [4] (i.p. 100 mg/kg rat twice) worked out at 0.8 mg/dL. In addition, the GPT in serum in series [1] was 371 U/l; in series [3] (i.p. 2 mg/kg rat twice) it was 538 U/l; in series [3] (i.p. 5 mg/kg rat twice) it was 322 U/l; in series [3] (i.p. 10 mg/kg rat twice), 120 U/l; in series [4] (i.p. 10 mg/kg rat twice) it was 323 U/l; in series [4] (i.p. 50 mg/kg rat twice), 583 U/l. Also, the GPT in serum in series [4] (i.p. 100 mg/kg rat twice) is on record as 576 U/l. Besides, the GOT in serum came to 2150 U/l in series [1]; 1132 U/l in series [3] (i.p. 2 mg/kg rat twice); 648 U/l in series [3] (i.p. 5 mg/kg rat twice); 480 U/l in series [3] (i.p. 10 mg/kg rat twice); 1186 U/l in series [4] (i.p. 10 mg/kg rat twice); 1270 U/l in series [4] (i.p. 50 mg/kg rat twice). The same compound yielded a GOT in serum in series [4] (i.p. 100 mg/kg rat twice) of 1563 U/l. For the same compound, the Membrane permeation constant in series [2] is 2.42 ± 0.60 10^-7 cm^2 · sec^-1. Also, the “membrane permeation constant relative to that of PQQ.2Na” value in series [2] is recorded as 3-4 times. For the same compound, the mice died result in the series with male mice SPF-ICR was “no mice died”.

For `COC(=O)c1cc(C(=O)OC)c2c(n1)C(=O)C(=O)c1cc(C(=O)OC)[nH]c1-2` [PQQ trimethyl ester], the “Total bilirubin in serum” value was 0.7 mg/dL in series [1]; 0.9 mg/dL in series [3] (i.p. 2 mg/kg rat twice); 0.5 mg/dL in series [3] (i.p. 5 mg/kg rat twice); 0.7 mg/dL in series [3] (i.p. 10 mg/kg rat twice); 0.9 mg/dL in series [4] (i.p. 10 mg/kg rat twice); 0.7 mg/dL in series [4] (i.p. 50 mg/kg rat twice). In addition, in series [4] (i.p. 100 mg/kg rat twice), the “Total bilirubin in serum” value was 0.8 mg/dL. Besides, the GPT in serum was 505 U/l in series [1]; 447 U/l in series [3] (i.p. 2 mg/kg rat twice); 182 U/l in series [3] (i.p. 5 mg/kg rat twice); 388 U/l in series [3] (i.p. 10 mg/kg rat twice); 479 U/l in series [4] (i.p. 10 mg/kg rat twice); 645 U/l in series [4] (i.p. 50 mg/kg rat twice). In series [4] (i.p. 100 mg/kg rat twice), this compound returned a GPT in serum of 676 U/l. The GOT in serum in series [1] is 2193 U/l; in series [3] (i.p. 2 mg/kg rat twice), 970 U/l; in series [3] (i.p. 5 mg/kg rat twice) it was 544 U/l; in series [3] (i.p. 10 mg/kg rat twice), 833 U/l; in series [4] (i.p. 10 mg/kg rat twice), 1263 U/l; in series [4] (i.p. 50 mg/kg rat twice), 1543 U/l. The GOT in serum in series [4] (i.p. 100 mg/kg rat twice) was 1605 U/l. Further, the Membrane permeation constant in series [2] is 1.41 ± 0.48 10^-7 cm^2 · sec^-1. Besides, in series [2], the “membrane permeation constant relative to that of PQQ.2Na” value is given as “about 2 times”. The mice died result in the series with male mice SPF-ICR is “no mice died”.

Values taken from patent US5061711A, “Method of curing liver diseases by using pyrrolo quinoline quinone triesters and novel pyrrolo quinoline quinone triesters” (Mitsubishi Gas Chemical Company, Inc., priority 1989, dated 1991).
